Publication PMC9232612, “A phase 1b randomised controlled trial of a glucagon-like peptide-1 and glucagon receptor dual agonist IBI362 (LY3305677) in Chinese patients with type 2 diabetes” (Nature Communications, 2022)

Key:
[1] = system: Chinese patients with T2D; experiment: Mixed-meal tolerance test (MTT) and fasting: total GLP-1; assay type: in vivo, human; details: week 12; patients receiving IBI362
Method: HbA1c (2200101, Bio-Rad, USA), blood glucose (05168791190, Roche Diagnostics, Germany), insulin (12017547122, Roche Diagnostics, Germany), C peptide (03184897190, Roche Diagnostics, Germany), total GLP-1 (GLP-1 [7–36] amide and its metabolite, GLP-1 [9–36] amide, 10-1278-01, Mercodia AB, Sweden) and OXM (AL-139, AnshLabs, USA) tests were performed according to the manufactures’ instruction manuals in a central laboratory (KingMed Diagnostics, Guangzhou, China). HbA1c was measured using a Bio-rad D-100 Haemoglobin Testing System (Bio-rad). Blood glucose was measured using a Roche Cobas c702 analyser (Roche Diagnostics). Insulin and C peptide were measured using a Roche […] analyser (Roche Diagnostics). GLP-1 and OXM were measured using a Tecan Infinite M Plex microplate reader (TECAN).
Standard non-compartmental pharmacokinetics methods were used to analyze IBI362 plasma concentration data using Pkanalix 2020R1 (Lixoft, Antony, France). Secondary efficacy outcomes included change from baseline to week 12 in HbA1c, fasting plasma glucose (FPG), fasting insulin levels, change from baseline to week 12 in post-mixed-meal tolerance test (post-MTT) glucose, insulin, C peptide, GLP-1 and OXM levels, as well as seven-point self-measured blood glucose (SMBG) profile. […]
3. […]
bag is added and mixed well. The time is counted from the first bite of eating. […]

[2] = Physical and chemical characteristics of drug substance (solubility, PI); assay type: physicochemical
Source text: IBI362 Innovent Biologics (Suzhou) Co., Ltd. CIBI362A101
IBI362 or placebo, the patient, the investigator, and all personnel involved in the clinical evaluation will be blinded to the treatment from the randomization to database locked, […]
Different drug numbers corresponded to random numbers after randomization in the IWRS, and the unblinding information remained unknown to patients and investigators throughout the trial. The randomization table will be kept by a designated […]
The study drug and placebo will be packaged, labeled, administered at the same time, and will have the appearance, taste, and smell exactly the same to hide the real situation of the treatment drug.
If necessary for the safety of the subject, emergency unblinding must be performed […]
If a patient is randomized to receive active control, the patient will not be blinded.
Sponsor will not be blinded during this study.
5.2.1 Physical and Chemical Characteristics of Drug Substance
Molecular weight: 4560.32 Dalton
Description: White to off-white powder
Solubility: Vehicle: 20 mM Tris buffer pH 8.0 and
Solubility: Not less than 10 mg/mL at
Solubility Description: Sparingly or
5.2.2 Study Drug Strength and Manufacturer
IBI362 is formulated as IBI362 for injection in a strength of 2 mg per vial and […]
The strength of the formulation used in this study is 2 mg/vial; Manufacturer: […]

## CC(C)C[C@H](NC(=O)[C@H](CC(C)C)NC(=O)[C@H](Cc1c[nH]c2ccccc12)NC(=O)[C@H](CCC(=O)O)NC(=O)[C@@H](NC(=O)[C@H](Cc1ccccc1)NC(=O)[C@H](CCC(=O)O)NC(=O)[C@H](CCCCNC(=O)COCCOCCNC(=O)COCCOCCNC(=O)CC[C@H](NC(=O)CCCCCCCCCCCCCCCCCCC(=O)O)C(=O)O)NC(=O)[C@H](C)NC(=O)[C@H](CCCCN)NC(=O)[C@H](CCCCN)NC(=O)[C@H](CCC(=O)O)NC(=O)[C@H](CC(=O)O)NC(=O)[C@H](CC(C)C)NC(=O)[C@H](Cc1ccc(O)cc1)NC(=O)[C@H](CCCCN)NC(=O)[C@H](CO)NC(=O)[C@H](Cc1ccc(O)cc1)NC(=O)[C@H](CC(=O)O)NC(=O)[C@H](CO)NC(=O)[C@@H](NC(=O)[C@H](Cc1ccccc1)NC(=O)[C@@H](NC(=O)CNC(=O)[C@H](CCC(N)=O)NC(=O)C(C)(C)NC(=O)[C@@H](N)Cc1c[nH]cn1)[C@@H](C)O)[C@@H](C)O)C(C)C)C(=O)N[C@@H](CCC(=O)O)C(=O)NCC(=O)NCC(=O)N1CCC[C@H]1C(=O)N[C@@H](CO)C(=O)N[C@@H](CO)C(=O)NCC(N)=O [IBI362]
[1]
  post-MTT GLP-1 excursion: markedly suppressed
[2]; drug substance
  PI: 5.2
[2]; vehicle 20 mM Tris buffer pH 8.0 and 150 mM sodium chloride, 25℃
  Solubility: Not less than 10 mg/mL
